Experimental data: patent US20220395496A1 (Hoffmann-La Roche Inc., priority 2019, published 2022)

Biological target: T1, human TLR9 (Homo sapiens, UniProt Q9NR96)
T1 sequence (Q9NR96 26-1032): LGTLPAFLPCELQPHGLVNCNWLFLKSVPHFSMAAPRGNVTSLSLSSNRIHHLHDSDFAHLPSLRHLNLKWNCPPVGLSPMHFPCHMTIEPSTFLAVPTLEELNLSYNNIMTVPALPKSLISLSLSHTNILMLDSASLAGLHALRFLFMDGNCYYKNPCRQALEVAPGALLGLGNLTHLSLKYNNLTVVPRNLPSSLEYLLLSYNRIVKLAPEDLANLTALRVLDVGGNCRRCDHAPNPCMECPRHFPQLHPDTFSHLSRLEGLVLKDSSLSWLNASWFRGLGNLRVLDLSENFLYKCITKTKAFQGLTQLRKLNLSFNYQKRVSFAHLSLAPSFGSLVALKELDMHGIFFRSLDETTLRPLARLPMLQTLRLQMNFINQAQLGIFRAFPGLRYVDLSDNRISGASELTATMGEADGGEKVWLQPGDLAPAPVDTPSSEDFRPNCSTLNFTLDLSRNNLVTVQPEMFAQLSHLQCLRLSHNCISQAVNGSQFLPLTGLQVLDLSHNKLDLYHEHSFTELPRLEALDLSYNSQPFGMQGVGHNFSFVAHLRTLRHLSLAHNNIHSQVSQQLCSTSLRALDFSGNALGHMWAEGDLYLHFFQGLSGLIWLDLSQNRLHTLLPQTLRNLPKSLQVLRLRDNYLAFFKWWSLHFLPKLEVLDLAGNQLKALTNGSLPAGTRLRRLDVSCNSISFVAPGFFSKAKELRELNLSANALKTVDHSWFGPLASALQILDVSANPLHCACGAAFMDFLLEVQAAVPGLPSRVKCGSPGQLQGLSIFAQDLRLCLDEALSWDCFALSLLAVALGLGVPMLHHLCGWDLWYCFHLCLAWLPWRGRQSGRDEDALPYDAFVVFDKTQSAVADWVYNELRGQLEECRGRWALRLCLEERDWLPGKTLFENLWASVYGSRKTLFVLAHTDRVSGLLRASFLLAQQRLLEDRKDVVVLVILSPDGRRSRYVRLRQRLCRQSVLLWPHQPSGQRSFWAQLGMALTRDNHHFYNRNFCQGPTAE
Assay: HEK293-Blue-hTLR-9 cells assay (SEAP reporter, ODN2006 stimulation)
Type: cell-based
Settings: HEK293-Blue-hTLR9 cells, ODN2006, 20 hrs
Experimental: The following tests were carried out in order to determine the activity of the compounds of this invention in HEK293-Blue-hTLR-7/8/9 cells assay.
HEK293-Blue-hTLR-9 Cells Assay:
A stable HEK293-Blue-hTLR-9 cell line was purchased from InvivoGen (Cat. #: hkb-htlr9, San Diego, Calif., USA). These cells were originally designed for studying the stimulation of human TLR9 by monitoring the activation of NF-κB. A SEAP (secreted embryonic alkaline phosphatase) reporter gene was placed under the control of the IFN-β minimal promoter fused to five NF-κB and AP-1-binding sites. The SEAP was induced by activating NF-κB and AP-1 via stimulating HEK-Blue hTLR9 cells with TLR9 ligands. Therefore the reporter expression was declined by TLR9 antagonist under the stimulation of a ligand, such as ODN2006 (Cat. #: tlr1-2006-1, Invivogen, San Diego, Calif., USA), for incubation of 20 hrs. The cell culture supernatant SEAP reporter activity was determined using QUANTI-Blue™ kit (Cat. #: rep-qb1, Invivogen, San Diego, Calif., USA) at a wavelength of 640 nm, a detection medium that turns purple or blue in the presence of alkaline phosphatase.
HEK293-Blue-hTLR9 cells were incubated at a density of 250,000˜450,000 cells/mL in a volume of 170 μL in a 96-well plate in Dulbecco's Modified Eagle's medium (DMEM) containing 4.5 g/L glucose, 50 U/mL penicillin, […], 2 mM L-glutamine, 10% (v/v) heat-inactivated fetal bovine serum with addition of 20 μL test compound in a serial dilution in the presence of final DMSO at 1% and 10 μL of 20 uM ODN2006 in above DMEM, perform incubation under 37° C. in a CO2 incubator for 20 hrs. Then 20 μL of the supernatant from each well was incubated with 180 μL Quanti-blue substrate solution at 37° C. for 2 hrs and the absorbance was read at 620˜655 nm using a spectrophotometer. The signalling pathway that TLR9 activation leads to downstream NF-κB activation has been widely accepted, and therefore similar reporter assay was modified for evaluating TLR9 antagonist.

| SMILES | IC50 |
| --- | --- |
| C[C@H]1C[C@@H](N2CCc3cc(N4CCNCC4)ccc3C2)CN(c2ccc(C#N)c3ncccc23)C1 (relative stereo) [Example 24, 5-[cis-3-methyl-5-(6-piperazin-1-yl-3,4-dihydro-1H-isoquinolin-2-yl)-1-piperidyl]quinoline-8-carbonitrile] | 70 nM |
| C[C@H]1C[C@@H](NCc2ccc(N3CCNCC3)cc2F)CN(c2ccc(C#N)c3ncccc23)C1 [Example 4, 5-[(3R,58)-3-[(2-fluoro-4-piperazin-1-yl-phenyl)methylamino]-5-methyl-1-piperidyl]quinoline-8-carbonitrile] | 94 nM |
| C[C@H]1C[C@@H](NCc2ccc(N3CCNCC3)cn2)CN(c2ccc(C#N)c3ncccc23)C1 [Example 5, 5-[(3S,5R)-3-methyl-5-[(5-piperazin-1-yl-2-pyridyl)methylamino]-1-piperidyl]quinoline-8-carbonitrile] | 68 nM |
| C[C@H]1C[C@@H](NCc2cccc(N3CCN(C)CC3)c2)CN(c2ccc(C#N)c3ncccc23)C1 [Example 6, 5-[(3S,5R)-3-methyl-5-[[3-(4-methylpiperazin-1-yl)phenyl]methylamino]-1-piperidyl]quinoline-8-carbonitrile] | 70 nM |
| C[C@H]1C[C@@H](N(C)Cc2ccc(N3CCNCC3)cc2)CN(c2ccc(C#N)c3ncccc23)C1 [Example 9, 5-[(3S,5R)-3-methyl-5-[methyl-[(4-piperazin-1-ylphenyl)methyl]amino]-1-piperidyl]quinoline-8-carbonitrile] | 95 nM |
| C[C@H]1C[C@@H](NCc2ccc3c(c2)CCNC3)CN(c2ccc(C#N)c3ncccc23)C1 [Example 11, 5-[(3S,5R)-3-methyl-5-(1,2,3,4-tetrahydroisoquinolin-6-ylmethylamino)-1-piperidyl]quinoline-8-carbonitrile] | 82 nM |
| Cc1cc(-c2ccc(CN[C@@H]3C[C@H](C)CN(c4ccc(C#N)c5ncccc45)C3)cc2)cc(C)n1 [Example 15, 5-[(3R,5S)-3-[[4-(2,6-dimethyl-4-pyridyl)phenyl]methylamino]-5-methyl-1-piperidyl]quinoline-8-carbonitrile] | 126 nM |
| C[C@H]1C[C@@H](NCc2ccc(N3CCN(C)CC3)cn2)CN(c2ccc(C#N)c3ncsc23)C1 [Example 18, 7-[(3S,5R)-3-methyl-5-[[5-(4-methylpiperazin-1-yl)-2-pyridyl]methylamino]-1-piperidyl]-1,3-benzothiazole-4-carbonitrile] | 116 nM |
| C[C@H]1C[C@@H](NCc2ccc(N3CCNCC3)cc2)CN(c2ccc(Cl)c3ncccc23)C1 [Example 22, (3R,5S)-1-(8-chloro-5-quinolyl)-5-methyl-N-[(4-piperazin-1-ylphenyl)methyl]piperidin-3-amine] | 183 nM |
| CC(N[C@@H]1C[C@H](C)CN(c2ccc(C#N)c3ncccc23)C1)c1ccc(N2CCNCC2)cc1 (stereo partly drawn) [Example 26, 5-[(3S,5R)-3-methyl-5-[1-(4-piperazin-1-ylphenyl)ethylamino]-1-piperidyl]quinoline-8-carbonitrile] | 55 nM |

Further compounds by falling IC50, results first:

| IC50 | SMILES |
| --- | --- |
| 163 nM | C[C@H]1C[C@@H](NCc2ccc(N3CCC(N)C3)cc2)CN(c2ccc(C#N)c3ncccc23)C1 (stereo partly drawn) [Example 13, 5-[(3R,5S)-3-[[4-(3-aminopyrrolidin-1-yl)phenyl]methylamino]-5-methyl-1-piperidyl]quinoline-8-carbonitrile] |
| 88 nM | C[C@H]1C[C@@H](NCc2cccc(N3CCNCC3)c2)CN(c2ccc(C#N)c3ncccc23)C1 [Example 8, 5-[(3S,5R)-3-methyl-5-[(3-piperazin-1-ylphenyl)methylamino]-1-piperidyl]quinoline-8-carbonitrile] |
| 77 nM | C[C@H]1C[C@@H](NCc2ccc(N3CCNCC3)cc2)CN(c2ccc(C#N)c3nccnc23)C1 [Example 3, 8-[(3S,5R)-3-methyl-5-[(4-piperazin-1-ylphenyl)methylamino]-1-piperidyl]quinoxaline-5-carbonitrile] |
| 77 nM | C[C@H]1C[C@@H](NCc2cnc(N3CCN(C)CC3)nc2)CN(c2ccc(C#N)c3ncccc23)C1 [Example 16, 5-[(3S,5R)-3-methyl-5-[[2-(4-methylpiperazin-1-yl)pyrimidin-5-yl]methylamino]-1-piperidyl]quinoline-8-carbonitrile] |
| 69 nM | C[C@H]1C[C@@H](NCc2ccc(N3CCN(C)CC3)cc2)CN(c2ccc(C#N)c3ncccc23)C1 [Example 7, 5-[(3S,5R)-3-methyl-5-[[4-(4-methylpiperazin-1-yl)phenyl]methylamino]-1-piperidyl]quinoline-8-carbonitrile] |
| 61 nM | C[C@H]1C[C@@H](NCc2ncc(N3CCNCC3)cn2)CN(c2ccc(C#N)c3ncccc23)C1 [Example 25, 5-[(3S,5R)-3-methyl-5-[(5-piperazin-1-ylpyrimidin-2-yl)methylamino]-1-piperidyl]quinoline-8-carbonitrile] |
| 48 nM | C[C@H]1C[C@@H](NCc2cnc(N3CCN[C@H](C)C3)nc2)CN(c2ccc(C#N)c3ncccc23)C1 [Example 28, 5-[(3S,5R)-3-methyl-5-[[2-[(3R)-3-methylpiperazin-1-yl]pyrimidin-5-yl]methylamino]-1-piperidyl]quinoline-8-carbonitrile] |
| 47 nM | C[C@H]1C[C@@H](NCc2cnc(N3CCNCC3)cn2)CN(c2ccc(C#N)c3ncccc23)C1 [Example 31, 5-[(3S,5R)-3-methyl-5-[(5-piperazin-1-ylpyrazin-2-yl)methylamino]-1-piperidyl]quinoline-8-carbonitrile] |
| 33 nM | C[C@H]1C[C@@H](NCc2ccc3c(n2)CCNC3)CN(c2ccc(C#N)c3ncccc23)C1 [Example 30, 5-[(3S,5R)-3-methyl-5-(5,6,7,8-tetrahydro-1,6-naphthyridin-2-ylmethylamino)-1-piperidyl]quinoline-8-carbonitrile] |
| 32 nM | C[C@H]1C[C@@H](NCc2cnc(N3CCN[C@@H](C)C3)nc2)CN(c2ccc(C#N)c3ncccc23)C1 [Example 29, 5-[(3S,5R)-3-methyl-5-[[2-[(3S)-3-methylpiperazin-1-yl]pyrimidin-5-yl]methylamino]-1-piperidyl]quinoline-8-carbonitrile] |
